In patent publication US20230406803A1, “TROPOLONE DERIVATIVES AND TAUTOMERS THEREOF FOR IRON REGULATION IN ANIMALS” (Kinesid Therapeutics, Inc, priority 2020, published 2023):

Key:
Mouse 6-hour PK study = conditions: in vivo, mouse 6-hour PK
Text: Useful such assays include, but are not limited to e.g., those measurements made in PK studies, such as rodent and non-human primate PK studies, including e.g., mouse (such as mouse 6-hour PK studies), rat PK studies, cynomolgus or rhesus PK studies, or the like. Useful measurements obtained in such PK studies include but are not limited to e.g., maximum concentration (Cmax) reflecting the “peak” of a drug observed after its administration that can reflect not only the rate but also the extent of absorption, area under the curve (AUC) representing the area under the plot of tissue (e.g., plasma) concentration against time after drug administration which is of particular use in estimating bioavailability of drugs and drug total clearance, half-life (t1/2) or the period of time required for the concentration or amount of drug to be reduced to exactly one-half of a given concentration or amount that indicates the persistence of the drug in its volume of distribution, and the like.
Such assessments included human and mouse liver microsomal stability assays as well as 6-hour mouse PK studies.

[1] = tested on: DMT1-deficient Caco-2 cells; assay: shDMT1-Caco2 55Fe transport assay; type: cell-based; conditions: 3 μM, 4 h; fold change over DMSO normalized to hinokitiol at 3 μM (FC hino=1)
Text: Assay 2: shDMT1-Caco2 ^55Fe Transport Assay to Assess Ligand Ability in Transporting Fe (III)
Cells: DMT1-deficient Caco-2 cells (alias: “shDMT1,” or “4A” cells) were from Grillo et al. Science, 2017, and were cryopreserved in liquid nitrogen prior to use.
Reagents and supplies: ^55FeCl3 was obtained from PerkinElmer (Boston, MA). Iron(III) chloride (FeCl3) hexahydrate was obtained from Sigma. Dulbecco's Modified Eagle Medium (DMEM), fetal bovine serum (FBS), L-glutamine, MEM nonessential amino acids, penicillin-streptomycin, G418, formic acid, methanol, high-purity water, ammonium formate, dimethyl sulfoxide (DMSO) were purchased from Fisher Scientific. Propranolol, atenolol and carbutamide were obtained from Sigma-Aldrich Chemical Company (St Louis, MO). Scintillation cocktail was obtained from Research Product International Co. (Mount Prospect, IL). Stericup filter system (PES membrane, 0.22 um pore size) was purchased from Fisher Scientific. Corning item #3378 24-well transwell insert plates.
Test articles: known compounds hinokitiol and deferiprone were purchased from Sigma. They are tested side by side with the small molecule ligands disclosed in this application. DMSO stocks (10 mM, which is 1,000× of the 10 μM dose level) of hinokitiol or test articles were prepared. A stock solution of 25 mM deferiprone in DMSO was prepared. The DMSO stock solutions were stored at −20° C. or below when not in use.
The growth medium was prepared according to the following table
Apical media (serum free DMEM, 10 mM MES, pH 6.5) was prepared. Apical master mix media was prepared fresh with the addition of 200 nM ^55Fe before each experiment. For the negative control propranolol and atenolol wells, 200 nM of non-radioactive iron was used.
The basolateral media was serum-free DMEM, 10 mM HEPES, 2% bovine serum albumin (BSA), pH 7.4.
For each experiment, cells were seeded into the 24-well transwell plates (0.5 mL of 50,000 cells/mL) with growth media. The basolateral companion plate was loaded with 1 mL of growth media. After 12-24 hr, both the apical and basolateral chamber were replaced with growth media. The apical media was changed 3× per week for 21-28 days, including a media change exactly 48 hr before the assay date.
On the assay day, the TEER values were measured and the average TEER value was obtained. Individual wells with TEER value >35% lower than the average of all wells were excluded. For the qualified wells, the apical layer (twice) and basolaterial (once) chambers were washed with PBS. The basolateral companion plate was then filled with 1 mL of basolateral media. Via addition down the side-wall of the apical well, 300 μL per well of the apical assay master mix, with the indicated dose level of test article, was added. Each dose was tested in triplicate. The plates were incubated (5% CO2 and 90% humidity at 37° C.) for the indicated timepoints. At each indicated timepoint, the basolateral supernatant was gently mixed via pipetting, and 200 μL of the basolateral supernatant was transferred to scintillation vials. To each scintillation counting vial, 5 mL of scintillation cocktail fluid was added. For each scintillation vial, the radioactivity (CPM) was determined with liquid scintillation counter LS6500. The counting time per vial was 5 min.
All raw CPM values are divided by the average value of blank DMSO solution to give a fold of change above the DMSO value. The mean and standard deviation of each compound at each concentration level and at each time point measured was calculated to give the fold change (fc) value. For rank order compounds, the fc value of a ligand at 4 h time point is further divided by the fold change (fc) value of hinokitiol (a positive control compound) at an equimolar concentration to arrive at the FC (normalized fold of change) value. Data reported in Tables 1 and 2 is 4 hr time point FC=fc-ligand @ 3 uM/fc-hino @ 3 μM, and FC hino=1.

Work on CC(C)c1cccc(=O)c(O)c1 [hinokitiol, reference compound] yielded an AUC(0-t) (Mouse 6-hour PK study; read-out: AUClast 0-6 hr) of 584 ng·h/mL, a Cmax (Mouse 6-hour PK study; read-out: Cmax) of 956 ng/mL and a half-life (Mouse 6-hour PK study; read-out: t1/2 (converted)) of 1.11 h. The “Caco2 shDMT1 transport FC @ 3 μM, 4 h” value [1] was 1.
